Data published in patent publication US20260125382A1, “COMPOUNDS FOR INHIBITING OR DEGRADING CDK2 AND/OR CDK9 AND MEDICINAL USE THEREOF” (KOREA RESEARCH INSTITUTE OF CHEMICAL TECHNOLOGY, priority 2022, published 2026).

What was measured:
CDK9 = target: T1, CDK9 (Homo sapiens, UniProt P50750); assay: CDK protein degradation activity (Western blotting), CDK9; assay type: cell-based; settings: MDA-MB-231 cells, 16 hours, Western blot
T1 construct: endogenous in cells; host or cells: MDA-MB-231
Procedure, shortened: (§1)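 MDA-MB-231 cells were treated with compound at final concentrations of 100 nM, 1 μM and 10 μM, or DMSO vehicle, for 16 h. Lysates were resolved by SDS-PAGE and immunoblotted for CDK2, CDK9 and tubulin, with band intensities quantified densitometrically.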

CDK2 = target: T2, CDK2 (Homo sapiens, UniProt P24941); assay: CDK protein degradation activity (Western blotting), CDK2; assay type: cell-based; settings: MDA-MB-231 cells, 16 hours, Western blot
T2 construct: endogenous in cells; host or cells: MDA-MB-231
Procedure, shortened: as §1

T1 sequence (P50750 whole entry): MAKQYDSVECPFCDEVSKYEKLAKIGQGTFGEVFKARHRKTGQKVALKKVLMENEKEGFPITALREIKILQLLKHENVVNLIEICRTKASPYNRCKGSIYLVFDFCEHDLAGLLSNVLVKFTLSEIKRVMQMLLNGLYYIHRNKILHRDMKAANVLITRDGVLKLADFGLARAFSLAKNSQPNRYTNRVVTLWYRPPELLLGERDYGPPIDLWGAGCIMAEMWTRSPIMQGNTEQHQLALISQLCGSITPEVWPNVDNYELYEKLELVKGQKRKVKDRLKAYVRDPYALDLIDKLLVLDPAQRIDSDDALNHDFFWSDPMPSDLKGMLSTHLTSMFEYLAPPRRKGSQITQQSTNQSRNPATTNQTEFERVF

SMILES | Enzyme degradation CDK9 (% remaining) @ 0.1 μM (CDK9) | Enzyme degradation CDK9 (% remaining) @ 1 μM (CDK9) | Enzyme degradation CDK9 (% remaining) @ 10 μM (CDK9) | Enzyme degradation CDK2 (% remaining) @ 0.1 μM (CDK2) | Enzyme degradation CDK2 (% remaining) @ 1 μM (CDK2) | Enzyme degradation CDK2 (% remaining) @ 10 μM (CDK2)
O=C1CC[C@H](N2C(=O)c3ccc(OCC(=O)N4CCC(CN5CCN(c6ccc(Nc7ncnc8c7ncn8C7CC(NC(=O)Cc8ccccc8)C7)cc6)CC5)CC4)cc3C2=O)C(=O)N1 (stereo partly drawn) [Compound 175, N-((1s,3s)-3-(6-((4-(4-((1-(2-((2-(2,6-dioxopiperidin-3-yl)-1,3-dioxoisoindolin-5-yl)oxy)acetyl)piperidin-4-yl)methyl)piperazin-1-yl)phenyl)amino)-9H-purin-9-yl)cyclobutyl)-2-phenylacetamide] | 80% | 30% | 0% | 100% | 80% | 30%
O=C1CC[C@H](N2C(=O)c3ccc(NCC(=O)N4CCC(CN5CCN(c6ccc(Nc7ncnc8c7ncn8C7CC(NC(=O)Cc8ccccc8)C7)cc6)CC5)CC4)cc3C2=O)C(=O)N1 (stereo partly drawn) [Compound 177, N-((1s,3s)-3-(6-((4-(4-((1-((2-(2,6-dioxopiperidin-3-yl)-1,3-dioxoisoindolin-5-yl)glycyl)piperidin-4-yl)methyl)piperazin-1-yl)phenyl)amino)-9H-purin-9-yl)cyclobutyl)-2-phenylacetamide] | 30% | 0% | 0% | 50% | 10% | 10%
O=C1CC[C@H](N2C(=O)c3cccc(N4CCC(CN5CCN(c6ccc(Nc7ncnc8c7ncn8C7CC(NC(=O)Cc8ccccc8)C7)cc6)CC5)CC4)c3C2=O)C(=O)N1 (stereo partly drawn) [Compound 178, N-((1s,3s)-3-(6-((4-(4-((1-(2-(2,6-dioxopiperidin-3-yl)-1,3-dioxoisoindolin-4-yl)piperidin-4-yl)methyl)piperazin-1-yl)phenyl)amino)-9H-purin-9-yl)cyclobutyl)-2-phenylacetamide] | 10% | 0% | 0% | 30% | 20% | 20%
O=C1CC[C@H](N2C(=O)c3ccc(N4CCC(CN5CCN(c6ccc(Nc7ncnc8c7ncn8[C@H]7C[C@@H](NC(=O)Cc8ccccc8)C7)cc6)CC5)CC4)cc3C2=O)C(=O)N1 [Compound 179, N-((1s,3s)-3-(6-((4-(4-((1-(2-(2,6-dioxopiperidin-3-yl)-1,3-dioxoisoindolin-5-yl)piperidin-4-yl)methyl)piperazin-1-yl)phenyl)amino)-9H-purin-9-yl)cyclobutyl)-2-phenylacetamide] | 10% | 0% | 0% | 10% | 0% | 0%
O=C1CCC(N2C(=O)c3cccc(N4CCC(CN5CCC(CNc6ncnc7c6ncn7[C@H]6C[C@@H](NC(=O)Cc7ccccc7)C6)CC5)CC4)c3C2=O)C(=O)N1 (stereo partly drawn) [Compound 180, N-((1s,3s)-3-(6-(((1-((1-(2-(2,6-dioxopiperidin-3-yl)-1,3-dioxoisoindolin-4-yl)piperidin-4-yl)methyl)piperidin-4-yl)methyl)amino)-9H-purin-9-yl)cyclobutyl)-2-phenylacetamide] | 20% | 80% | 0% | 30/30/30% | 30/30/30% | 30/30/30%
O=C1CC[C@H](N2C(=O)c3ccc(N4CCC(CN5CCC(CNc6ncnc7c6ncn7C6CC(NC(=O)Cc7ccccc7)C6)CC5)CC4)cc3C2=O)C(=O)N1 (stereo partly drawn) [Compound 181, N-((1s,3s)-3-(6-(((1-((1-(2-(2,6-dioxopiperidin-3-yl)-1,3-dioxoisoindolin-5-yl)piperidin-4-yl)methyl)piperidin-4-yl)methyl)amino)-9H-purin-9-yl)cyclobutyl)-2-phenylacetamide] | 50% | 40% | 0% | 40% | 30% | 50%
O=C1CC[C@H](N2C(=O)c3cccc(OCC(=O)N4CCC(CN5CCC(CNc6ncnc7c6ncn7C6CC(NC(=O)Cc7ccccc7)C6)CC5)CC4)c3C2=O)C(=O)N1 (stereo partly drawn) [Compound 182, N-((1s,3s)-3-(6-(((1-((1-(2-((2-(2,6-dioxopiperidin-3-yl)-1,3-dioxoisoindolin-4-yl)oxy)acetyl)piperidin-4-yl)methyl)piperidin-4-yl)methyl)amino)-9H-purin-9-yl)cyclobutyl)-2-phenylacetamide] | 20% | 10% | 0% | 70% | 50% | 50%
O=C1CC[C@H](N2C(=O)c3cccc(NCC(=O)N4CCC(CN5CCC(CNc6ncnc7c6ncn7C6CC(NC(=O)Cc7ccccc7)C6)CC5)CC4)c3C2=O)C(=O)N1 (stereo partly drawn) [Compound 184, N-((1s,3s)-3-(6-(((1-((1-((2-(2,6-dioxopiperidin-3-yl)-1,3-dioxoisoindolin-4-yl)glycyl)piperidin-4-yl)methyl)piperidin-4-yl)methyl)amino)-9H-purin-9-yl)cyclobutyl)-2-phenylacetamide] | 0/0/0% | 0/0/0% | 0/0/0% | 70% | 70% | 50%
O=C1CCC(N2C(=O)c3ccc(NCC(=O)N4CCC(CN5CCC(CNc6ncnc7c6ncn7[C@H]6C[C@@H](NC(=O)Cc7ccccc7)C6)CC5)CC4)cc3C2=O)C(=O)N1 (stereo partly drawn) [Compound 185, N-((1s,3s)-3-(6-(((1-((1-((2-(2,6-dioxopiperidin-3-yl)-1,3-dioxoisoindolin-5-yl)glycyl)piperidin-4-yl)methyl)piperidin-4-yl)methyl)amino)-9H-purin-9-yl)cyclobutyl)-2-phenylacetamide] | 0/0/0% | 0/0/0% | 0/0/0% | 100/100/100% | 100/100/100% | 100/100/100%
O=C1CCN(c2coc3cc(C(=O)N4CCC(CN5CCN(c6ccc(Nc7ncnc8c7ncn8[C@H]7C[C@@H](NC(=O)Cc8ccccc8)C7)cc6)CC5)CC4)ccc23)C(=O)N1 [Compound 187, N-((1s,3s)-3-(6-((4-(4-((1-(3-(2,4-dioxotetrahydropyrimidin-1(2H)-yl)benzofuran-6-carbonyl)piperidin-4-yl)methyl)piperazin-1-yl)phenyl)amino)-9H-purin-9-yl)cyclobutyl)-2-phenylacetamide] | 10% | 0% | 0% | 30% | 10% | 20%
O=C1CC[C@H](N2C(=O)C=C(Nc3cccc(CC(=O)N4CCC(CN5CCN(c6ccc(Nc7ncnc8c7ncn8C7CC(NC(=O)Cc8ccccc8)C7)cc6)CC5)CC4)c3)C2=O)C(=O)N1 (stereo partly drawn) [Compound 188, N-((1s,3s)-3-(6-((4-(4-((1-(2-(3-((1-(2,6-dioxopiperidin-3-yl)-2,5-dioxo-2,5-dihydro-1H-pyrrol-3-yl)amino)phenyl)acetyl)piperidin-4-yl)methyl)piperazin-1-yl)phenyl)amino)-9H-purin-9-yl)cyclobutyl)-2-phenylacetamide] | 20% | 20% | 10% | 80% | 70% | 60%
O=C1CC[C@H](N2C(=O)C=C(N3CCC(C(=O)N4CCC(CN5CCN(c6ccc(Nc7ncnc8c7ncn8[C@H]7C[C@@H](NC(=O)Cc8ccccc8)C7)cc6)CC5)CC4)CC3)C2=O)C(=O)N1 [Compound 189, N-((1s,3s)-3-(6-((4-(4-((1-(1-(1-(2,6-dioxopiperidin-3-yl)-2,5-dioxo-2,5-dihydro-1H-pyrrol-3-yl)piperidin-4-carbonyl)piperidin-4-yl)methyl)piperazin-1-yl)phenyl)amino)-9H-purin-9-yl)cyclobutyl)-2-phenylacetamide] | 0/0/0% | 0/0/0% | 0/0/0% | 30% | 20% | 40%
O=C1CCN(c2coc3cc(C(=O)N4CCC5(CC4)CC(N4CCN(c6ccc(Nc7ncnc8c7ncn8[C@H]7C[C@@H](NC(=O)Cc8ccccc8)C7)cc6)CC4)C5)ccc23)C(=O)N1 [Compound 191, N-((1s,3s)-3-(6-((4-(4-(7-(3-(2,4-dioxotetrahydropyrimidin-1(2H)-yl)benzofuran-6-carbonyl)-7-azaspiro[3.5]nonan-2-yl)piperazin-1-yl)phenyl)amino)-9H-purin-9-yl)cyclobutyl)-2-phenylacetamide] | 0/0/0% | 0/0/0% | 0/0/0% | 0/0/0% | 0/0/0% | 0/0/0%
